Test results: patent US6677307B2, “TGF-α polypeptides, functional fragments and methods of use therefor” (Kaleidos Pharma, Inc., priority 1999, dated 2004)

Assays:
[1] = tested on: kidney tissue (primarily glomeruli); test: Cis-platinum kidney damage, H&E kidney histology; type: in vivo; settings: mice; CP 10 mg/kg ip; 10 μg/kg 6 hours prior to CP and 24 and 48 hours after CP
Procedure: In addition, administration of a TGF-α polypeptide, fragments, and mimetic to regenerate damaged tissue, for example, in kidney, an organ sensitive to such damage, is also disclosed herein. In an in vivo experiment, mice were administered 10 mg/kg of Cis-platinum as a single ip injection and treated mice administered 10 μg/kg a human TGF-α57 (R&D Systems, Minneapolis, Minn.). TGF-α57 was administered just before CP and in two additional doses after, by ip administration for a general systemic effect. Several organs or tissues were collected from the animals sacrificed 4 days after CP dose (or saline for no TGFα57) and tissues were examined histologically.
The cuboidal epithelium of the proximal convuluted tubule was also damaged.

[2] = tested on: immune cells (T cell lineage), mast cells; test: immune cells, mast cells and cytokines in vivo after CP; design: species or system mice; settings: mice after immune-suppression by CP; lymphoid tissue, Peyers Patches, spleen
Excerpt: The stimulated immune cells were phenotypically identified as CD4 positive T cells and double null CD4 negative CD8 negative T cell progenitors. […] The in vivo activity of TGFα (and the functional peptides of formula I, formula II, formula III, and formula IV) to stimulate early T cell progenitors in the release of TH-1 and TH-2 cytokines and this regulation of immune phenomena. The stimulation of select immune cells, in particular cells of a T cell lineage, was seen consistently in the mice who received CP and TGF-α57 in lymphoid tissue, Peyers Patches and the spleen. Further, recruitment of help via CD4 cells in some cases boosts immune system function in general.
This is a parallel activity that is in addition to the gastrointestinal anti-inflammatory activity and prevention of mucositis of TGFα (and the functional peptides of formula I, formula II, formula III, and […]) described herein.

[3] = tested on: human CD34 positive and CD38 negative cells; test: liquid primary culture of human bone-marrow enriched CD34 cells; type: cell-based
Procedure: An additional experiment investigated TGF-α activity (using TGF-α57) on human bone-marrow enriched CD34 cells. FACS-sorted human CD34 positive and CD38 negative cells were cultured in liquid primary cultures in Iscove's modified Dulbecco's media with supplements. […] Stem Cell Factor (SCF) was used as a positive control (500 ng/ml) and provided a three-fold increase in CD34 positive cells. When a combination of SCF (500 ng/ml) and TGFα (10 ng/ml) was added, a synergistic 12-fold increase in CD34 positive cells was observed.

[4] = tested on: lymphoid tissues such as spleen and the large intestine; test: histological examination of lymphoid tissues after TGF-α57; type: in vivo; settings: mice; 10-50 μg/kg ip 3 days or 10-50 μg/kg iv 2 days or 10 μg/kg sc 3-5 days; vs untreated mice
Excerpt: In still another embodiment, a TGF-α polypeptide, a related polypeptide, mimetic, or functional fragment thereof having TGF-α activity are useful as vaccine adjuvants to increase mucosal humoral immunity. […] Such T cell progenitors positioned in the gastrointestinal tract represent a reservoir for CD4 helper cells needed against mucosal directed vaccine production mediated by priming with exogenous antigen. The T cell progenitor cells appear to be double null and thus naive. Accordingly, the T cell progenitor cell response to TGF-α and TGF-α mimetics provides the utility for such compounds to provide a strong mucosal immunity response and usefulness as a mucosal vaccine and as a universal stem cell adjuvant.

kidney = test: gentamicin chronic kidney toxicity, blood BUN and creatinine; type: in vivo, CD-1 mice; settings: gentamicin sulfate 80 mg/kg sc every 24 hours; 1 μg ip every 24 hours; two weeks
Procedure: In another set of in vivo experiments, gentamicin (antibiotic having dose-limiting kidney toxicity side effects) was used as the cytotoxic agent for a chronic cytotoxic agent. Eight CD-1 mice were weighed and injected subcutaneously with 80 mg/kg of gentamicin sulfate. Four of the mice were controls and injected with 0.1 ml of 0.9% saline and the other four injected ip with 0.1 ml of 10 μg/ml stock of TGF-α (57 aa polypeptide) as a 1 μg dose. The mice were reinjected with the same does of saline or TGF-α every 24 hours and every 24 hours subcutaneously with the same does of gentamicin. After two weeks of treatment, the mice were sacrificed and blood BUN and creatinine were measured and the kidneys examined. The average creatinine values were 0.49±0.096 for controls and 0.34±0.042 for treated mice. The average BUN values were 36.1±4.8 for controls and 35.5±4.9 for treated mice.

TGF-α57: 57 amino acid polypeptide of formula VI: Ser-Leu-Ser-Leu-Pro-Ala-Met-Human TGFα
glomeruli damage (H&E kidney histology) [1]: essentially protected the glomeruli from damage
proliferation of select immune cells (T cell lineage) [2]: stimulation of proliferation of select immune cells
increase in CD34 positive progenitor cells ([3]; added alone, 10 ng/ml): 35%
proliferation of dendritic precursor cells ([3]; treated cultures): stimulation of the proliferation of dendritic precursor cells
T cell progenitor cells (histology) [4]: increase in T cell progenitor cells
average BUN (kidney): 35.5±4.9
average creatinine (kidney): 0.34±0.042
